Target: T1, thioredoxin reductase (TrxR) (Rattus norvegicus, UniProt O89049)
T1 sequence (O89049 1-499): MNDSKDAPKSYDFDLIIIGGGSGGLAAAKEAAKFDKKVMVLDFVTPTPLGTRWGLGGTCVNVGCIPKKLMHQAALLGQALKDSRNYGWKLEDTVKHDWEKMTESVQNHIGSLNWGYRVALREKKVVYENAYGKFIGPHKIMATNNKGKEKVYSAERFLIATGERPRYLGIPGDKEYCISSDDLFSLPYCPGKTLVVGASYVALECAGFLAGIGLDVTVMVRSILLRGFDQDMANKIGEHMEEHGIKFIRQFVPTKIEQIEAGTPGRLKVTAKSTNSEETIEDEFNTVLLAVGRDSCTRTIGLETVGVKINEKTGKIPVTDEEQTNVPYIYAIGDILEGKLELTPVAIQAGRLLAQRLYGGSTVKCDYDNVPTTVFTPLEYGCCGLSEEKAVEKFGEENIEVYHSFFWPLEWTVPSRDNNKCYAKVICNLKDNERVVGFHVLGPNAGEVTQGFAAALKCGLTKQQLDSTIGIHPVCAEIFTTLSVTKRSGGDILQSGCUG
Assay: DTNB assay with isolated TrxR, % inhibition at […]
Type: biochemical
Conditions: read-out: Isolated TrxR (Inhibition %)

| Compound | inhibition at 50 µM [%] |
| --- | --- |
| C=C1C(=O)O[C@@H]2C[C@@]3(C)CCCC(=C)[C@@H]3C[C@H]12 [compound 5, Isoalantolactone] | 79.7 |
| O=C(/C=C/c1ccc(O)cc1)c1ccc(O)cc1O [compound 4, Isoliquiritigenin] | 76.9 |
